Columns and labels:
Cimex lectularius [1] = test: large Plexiglass arena bioassay with baited and control shelters; type: in vivo; details: adult males
Excerpt: The large two-chamber Plexiglass arena (180 cm long×12 cm high×13 cm wide) was designed with a central divider (180 cm long×5.5 cm high) to accommodate two pieces of wood (162 cm long×3.8 cm wide×0.8 cm high), each piece for testing the response of a single bed bug to a pheromone-baited shelter or a control shelter (see insert in FIG. 1,b) which were randomly assigned to either end of the wood. […] For each replicate, a single bed bug was placed in the center of the wood piece just prior to the end of the 14-h photophase, and its position was scored the next morning after the onset of the photophase.
Experiments 68-75 also investigated the effect of the volatile pheromone components (VPCs) (E)-2-hexenal, (E)-2-octenal, dimethyl disulfide, dimethyl trisulfide and 2-hexanone, and the effect of the less-volatile pheromone component histamine (H), on attraction and arrestment of bed bugs. Treatment stimuli consisted of filter paper (4×2.2 cm) impregnated with H (2,000 μg) and covered with a piece of corrugated cardboard shelter (3×2.2 cm), and of VPCs formulated at a high dose (500 μg; Experiments 68-74) or a medium dose (50 μg; Experiment 75) in mineral oil (0.5 ml) and pipetted into the inverted lid of a 20-ml scintillation vial resting on top of the shelter (FIG. 1). Control stimuli were of identical design but the filter paper contained no H, and the mineral oil contained no VPCs.

bed bugs = test: shelter traps in a heavily infested residential apartment (Room 106); type: in vivo, Cimex lectularius; details: 24-h periods; for Mean ± SE number insects in baited shelter: Exp. 76-79, paired shelters; for Mean (± SE) number insects in control shelter: Exp. 76-79, unbaited shelter paired with the baited shelter
Excerpt: To determine whether bed bugs responded to synthetic pheromone lures not only in large arena laboratory bioassays but also in infested premises (residential apartments), we placed pheromone-baited shelter traps (see FIG. 1) in apartments with known or suspected bed bug infestations. […] Based on 24-hour trapping results in multiple apartments, we selected a single, heavily infested apartment (hereafter referred to as Room 106) for further testing of synthetic bed bug pheromone lures.
Replicates (n=15-20) of each experiment consisted of paired shelters placed against a wall or furniture, with approximately 30-cm spacing between paired shelters and >1 m spacing between shelter pairs. For each shelter pair within each experiment, pheromone and control treatments were randomly assigned, and placement of replicates was alternated between the two experiments of Set 1 and Set 2. Because not more than 10 shelter pairs could be accommodated in Room 106 at any time, experimental data were collected over several consecutive 24-h periods. Every morning at 9:00, shelters were collected from Room 106 and immediately placed into separate labelled zipper lock bags which were then put on dry ice to kill the bed bugs that had entered a shelter. Bed bugs in each shelter were later counted in the laboratory under a microscope, noting their developmental stage (1st, 2nd, 3rd, 4th instar, adult), sex (male, female), and evidence (or not) for blood feeding prior to entry into a shelter Immediately following the removal of bed bug shelters from Room 106 each morning, new pre-prepared shelters were pheromone-baited (treatment) or not (control) and their position within shelter pairs randomly assigned (see above), again alternating placement of shelter pairs between Experiments 76 and 77 (Set 1) and between Experiments 78 and 79 (Set 2).

Cimex lectularius [2] = test: three-dish, dual-choice olfactometer bioassay; type: in vivo
Excerpt: Bioassays were run in dual-choice olfactometers and in large Plexiglass arenas (FIG. 1). Dual-choice olfactometers consisted of two lateral Pyrex® glass Petri dishes, connected to a central dish (all dishes 3×9 cm inner diameter) via a Pyrex® glass tube (2.5 cm long×2 cm inner diameter). The dishes in this olfactometer mimic the natural still-air shelters in which bed bugs spend the day. Prior to the start of bioassays, a disc of paper towelling (9 cm diameter) was placed into each dish and a strip of paper towelling (2.4×0.6 cm) was inserted into the connecting glass tubing to provide traction for walking bed bugs. In addition, a piece of filter paper (2×3 cm; Whatman) was placed into each lateral dish and covered with a piece of cardboard (2×2 cm) as a refuge for bioassay insects.
Treatment and control stimuli were randomly assigned to each lateral dish. Olfactometers were enclosed in opaque plastic bins to prevent light from entering and affecting the insects' response. For each replicate, a single 3rd, 4th or 5th instar C. lectularius nymph was released into the central chamber of the olfactometer, which was then covered with a glass plate to prevent escape. The single bed bugs in each olfactometer were then allowed to explore all chambers. Each insect was released into an olfactometer at the end of the 14-h photophase allowing it to explore the chambers during 10 h of darkness, and to come to rest in one of the shelters during 10 h of light. After this 20-h period, the insect's position within the olfactometer was recorded. Any insects not found in a lateral chamber were recorded as non-responders. All experimental replicates were run at 24±2° C. and 30-60% RH. Olfactometers were washed with Sparkleen detergent (Fisher Scientific Co, Pittsburgh, Pa., USA), and were oven-dried (Precision, Winchester, Va., USA) between each bioassay.
To determine whether a blend of the 15 bed bug feces volatiles that were identified in bed bug feces (see EXAMPLE 11) attracts bed bugs and thus contains one or more bed bug pheromone components, the synthetic blend (SB) was tested at a medium dose (50 μg; Experiment 45), a low dose (5 μg; Experiment 46), and a very low dose (0.5 μg; Experiment 47) for the response of bed bugs in three-dish, dual-choice olfactometers (see EXAMPLE 2, FIG. 1). At each dose tested, all components were formulated in equal amounts in mineral oil which was pipetted into the inverted lid of a 4-ml vial. The vial was then placed on top of the corrugated cardboard shelter (see FIG. 1) in the randomly assigned treatment dish of the olfactometer (see EXAMPLE 2). The control stimulus consisted of the same type of lid on the corrugated cardboard of the control dish of the olfactometer containing mineral oil without synthetic test chemicals.

[3] = baited shelter 1 vs unbaited shelter 2, VPCs 500 μg, histamine 2,000 μg

With `NCCc1c[nH]cn1` [H, histamine] the “No. insects in shelter 2” value (Cimex lectularius [1]; Exp. 72, H (2,000 μg) in shelter 2 vs VPC (500 μg) in shelter 1) was 14, the “No. insects in shelter 2” value (Cimex lectularius [1]; Exp. 74, H (2,000 μg) in shelter 2 vs VPC (500 μg) + H in shelter 1) was 5 and the “No. insects in shelter 2” value (Cimex lectularius [1]; Exp. 75, H (2,000 μg) in shelter 2 vs VPC (50 μg) + H in shelter 1) was 0. For the same compound, the “No. insects in shelter 1” value (Cimex lectularius [1]; [3]) was 12, the “No. insects not responding” value (Cimex lectularius [1]; [3]) was 5 and the “No. insects in shelter 2” value (Cimex lectularius [1]; unbaited shelter 2, bait in shelter 1, VPCs 500 μg, histamine 2,000 μg) was 1. The “No. insects in shelter 2” value (Cimex lectularius [1]; unbaited shelter 2, bait in shelter 1, VPCs 500 μg, histamine 2,000 μg, listed as histamine) was “one”, the “Mean ± SE number insects in baited shelter” value (bed bugs) was 6.06 ± 1.28 and the “Mean ± SE number insects in baited shelter” value (bed bugs; listed as histamine) was 6.06. The “Mean (± SE) number insects in control shelter” value (bed bugs) was 4.53 ± 1.8, the “Mean (± SE) number insects in control shelter” value (bed bugs; listed as histamine) was 4.53 and the “No. insects not responding” value (Cimex lectularius [2]; Exp. 23-37, nymphs, bait amounts in micrograms) was 3. The “No. insects in control chamber” value (Cimex lectularius [2]; Exp. 23-37, nymphs, bait in the other chamber, amounts in micrograms) was 10, the “No. insects in bait chamber” value (Cimex lectularius [2]; Exp. 23-37, nymphs, numbers in parentheses of the bait = amounts in micrograms) was 35 and the “arrestment response by form of histamine (in words)” value (Cimex lectularius [2]; Experiments 26-28, dimethylaminoethanol 20 μg and histamine 20 μg as base, salt or base and salt) was “only as a base elicits the bed bugs' arrestment response”. For the same compound, the “bioactivity alone (in words)” value (Cimex lectularius [2]; Experiments 36-37, alone at 200 μg, nymphs) was “bioactive on its own”.

Source: US20160316750A1, “Compounds, Compositions and Methods for Attracting and/or Arresting Bed Bugs” (priority 2013, published 2016)
